Experimental data published in US20170064958A1, “Active compound combinations having insecticidal properties” (BAYER CROPSCIENCE AKTIENGESELLSCHAFT, priority 2014, published 2017).

How the values were obtained:
Assay type in all cases: in vivo
[1] = tested on: mustard beetle larvae (Phaedon cochleariae); experiment: Phaedon cochleariae - spray test; conditions: single active ingredient, 0.16 g ai/ha, mortality after 6 d, Chinese cabbage leaf disks
Method: (§1) To produce a suitable preparation of active compound, 1 part by weight of active compound is mixed with the stated amount of solvents and is diluted with water, containing an emulsifier concentration of 1000 ppm, to the desired concentration. To produce a suitable preparation of a spore suspension the spores are diluted with emulsifier containing water to the desired concentration. Further test concentrations are prepared by dilution with emulsifier containing water.
Chinese cabbage (Brassica pekinensis) leaf disks are sprayed with a preparation of the active ingredient of the desired concentration. Once dry, the leaf disks are infested with mustard beetle larvae (Phaedon cochleariae).
After the specified period of time, mortality in % is determined. 100% means all beetle larvae have been killed and 0% means none of the beetle larvae have been killed. The mortality values determined thus are recalculated using the Colby-formula (see sheet 1).

[2] = tested on: green peach aphid (Myzus persicae); experiment: Myzus persicae - spray test; conditions: single active ingredient, 0.8 g ai/ha, mortality after 1 d, Chinese cabbage leaf disks
Method: as §1
Chinese cabbage (Brassica pekinensis) leaf disks infected with all instars of the green peach aphid (Myzus persicae), are sprayed with a preparation of the active ingredient of the desired concentration.
After the specified period of time, mortality in % is determined 100% means all aphids have been killed; 0% means none of the aphids have been killed. The mortality values determined thus are recalculated using the Colby-formula (see sheet 1).

[3] = tested on: two spotted spidermite (Tetranychus urticae); experiment: Tetranychus urticae - spray test OP-resistant; conditions: single active ingredient, French bean leaf disks; for Efficacy in % after 2d: 0.8 g ai/ha, mortality after 2 d
Method: as §1
French bean (Phaseolus vulgaris) leaf disks which are heavily infested with all stages of the two spotted spidermite (Tetranychus urticae), are sprayed with a preparation of the active ingredient of the desired concentration.
After the specified period of time, mortality in % is determined 100% means all spider mites have been killed and 0% means none of the spider mites have been killed. The mortality values determined thus are recalculated using the Colby-formula (see sheet 1).

| SMILES | Efficacy in % after 6d [1] | Efficacy in % after 1d [2] | Efficacy in % after 6d ([3]; 0.16 g ai/ha, mortality after 6 d) | Efficacy in % after 2d [3] |
| --- | --- | --- | --- | --- |
| CC1(C)[C@H](C(=O)O[C@H](C#N)c2cccc(Oc3ccccc3)c2)[C@@H]1/C=C(\Cl)C(F)(F)F (racemic) [Lambda- Cyhalothrin, lambda-Cyhalothrin] | 33% | – | – | – |
| CC1(C)[C@H](C(=O)O[C@H](C#N)c2cccc(Oc3ccccc3)c2)[C@@H]1/C=C\C(=O)OC(C(F)(F)F)C(F)(F)F [Acrinathrin] | – | 70% | 0% | 0% |
| Cc1c(COC(=O)[C@@H]2[C@H](/C=C(\Cl)C(F)(F)F)C2(C)C)cccc1-c1ccccc1 (racemic) [Bifenthrin] | – | – | – | 0% |
| CC1(C)[C@H](C(=O)O[C@H](C#N)c2cccc(Oc3ccccc3)c2)[C@@H]1C=C(Br)Br [Deltamethrin] | – | – | – | 0% |
